Like-named read-outs stand apart in the source and are kept apart here.
Assay: Phase I five-way crossover: intranasal and sublingual naloxone spray 8 mg and 16 mg versus 0.4 mg intramuscular, plasma concentrations
Format: in vivo, human subjects
Conditions: for concentration at 0.03 h / concentration at 0.07 h / concentration at 0.1 h / concentration at 0.13 h / concentration at 0.17 h / concentration at 0.5 h / concentration at 1 h / concentration at […] / Cmax / AUC: human, plasma; for concentration at 0.03 h / concentration at 0.07 h / concentration at 0.1 h / concentration at 0.13 h / concentration at 0.17 h / concentration at 0.5 h / concentration at 1 h / concentration at […]: mean ± SD; for concentration at […]: read-out: Conc. @ 0.25 h; for AUC: time-zero to 1 hour post dose
Experimental: 145 subjects were randomly assigned to one of five groups including 8 milligrams sublingual dose, 16 milligrams sublingual dose, 8 milligrams intranasal dose, 16 milligrams intranasal dose and 0.4 milligram naloxone dose. Plasma concentrations were taken at pre-dose, 0.03, 0.07, 0.1, 0.13, 0.17, 0.25, 0.5, 1, 2 4, 8 and 12 hours' post-dose.

C=CCN1CC[C@]23c4c5ccc(O)c4O[C@H]2C(=O)CC[C@@]3(O)[C@H]1C5 [naloxone, Naloxone]
mean plasma concentration, 16 mg intranasal compared with 16 mg sublingual (2 and 4 hours post-dose): significantly lower
plasma concentration, intranasal compared with sublingual administration (all time points up to 1 hour after administration): significantly greater plasma concentration
concentration at 0.03 h (intramuscular, 0.4 mg IM): 0.15 ± 0.29 ng/mL
concentration at 0.07 h (intramuscular, 0.4 mg IM): 0.36 ± 0.38 ng/mL
concentration at 0.1 h (intramuscular, 0.4 mg IM): 0.51 ± 0.41 ng/mL
concentration at 0.13 h (intramuscular, 0.4 mg IM): 0.58 ± 0.39 ng/mL
concentration at 0.17 h (intramuscular, 0.4 mg IM): 0.63 ± 0.36 ng/mL
concentration at 0.5 h (intramuscular, 0.4 mg IM): 0.62 ± 0.22 ng/mL
concentration at 1 h (intramuscular, 0.4 mg IM): 0.51 ± 0.16 ng/mL
concentration at […] (intramuscular, 0.4 mg IM): 0.69 ± 0.4 ng/mL
concentration at 0.03 h (other: intranasal, 8 mg IN): 6.19 ± 14.5 ng/mL
concentration at 0.07 h (other: intranasal, 8 mg IN): 13.9 ± 19.1 ng/mL
concentration at 0.1 h (other: intranasal, 8 mg IN): 18.8 ± 15.6 ng/mL
concentration at 0.13 h (other: intranasal, 8 mg IN): 20.5 ± 13.1 ng/mL
concentration at 0.17 h (other: intranasal, 8 mg IN): 20 ± 10.7 ng/mL
concentration at 0.5 h (other: intranasal, 8 mg IN): 9.88 ± 4.42 ng/mL
concentration at 1 h (other: intranasal, 8 mg IN): 6.29 ± 2.7 ng/mL
concentration at […] (other: intranasal, 8 mg IN): 16.5 ± 6.71 ng/mL
concentration at 0.03 h (other: intranasal, 16 mg IN): 9.29 ± 14.3 ng/mL
concentration at 0.07 h (other: intranasal, 16 mg IN): 29.7 ± 28 ng/mL
concentration at 0.1 h (other: intranasal, 16 mg IN): 46.3 ± 36.6 ng/mL
concentration at 0.13 h (other: intranasal, 16 mg IN): 49.3 ± 34 ng/mL
concentration at 0.17 h (other: intranasal, 16 mg IN): 45.8 ± 24.6 ng/mL
concentration at 0.5 h (other: intranasal, 16 mg IN): 22.4 ± 8.19 ng/mL
concentration at 1 h (other: intranasal, 16 mg IN): 14.1 ± 5.61 ng/mL
concentration at […] (other: intranasal, 16 mg IN): 35 ± 13.2 ng/mL
concentration at 0.03 h (other: sublingual, 8 mg SL): 0.18 ± 0.29 ng/mL
concentration at 0.07 h (other: sublingual, 8 mg SL): 0.62 ± 0.96 ng/mL
concentration at 0.1 h (other: sublingual, 8 mg SL): 0.88 ± 0.94 ng/mL
concentration at 0.13 h (other: sublingual, 8 mg SL): 1.17 ± 1.13 ng/mL
concentration at 0.17 h (other: sublingual, 8 mg SL): 1.54 ± 1.1 ng/mL
concentration at 0.5 h (other: sublingual, 8 mg SL): 2.03 ± 1.28 ng/mL
concentration at 1 h (other: sublingual, 8 mg SL): 1.61 ± 0.85 ng/mL
concentration at […] (other: sublingual, 8 mg SL): 1.98 ± 1.29 ng/mL
concentration at 0.03 h (other: sublingual, 16 mg SL): 0.52 ± 0.8 ng/mL
concentration at 0.07 h (other: sublingual, 16 mg SL): 1.69 ± 1.85 ng/mL
concentration at 0.1 h (other: sublingual, 16 mg SL): 2.31 ± 2.08 ng/mL
concentration at 0.13 h (other: sublingual, 16 mg SL): 3.16 ± 3.39 ng/mL
concentration at 0.17 h (other: sublingual, 16 mg SL): 3.63 ± 3.83 ng/mL
concentration at 0.5 h (other: sublingual, 16 mg SL): 3.94 ± 2.96 ng/mL
concentration at 1 h (other: sublingual, 16 mg SL): 2.96 ± 1.66 ng/mL
concentration at […] (other: sublingual, 16 mg SL): 4.39 ± 4.24 ng/mL
Cmax (other: intranasal, 8 mg IN): 20.5 ng/mL
AUC (other: intranasal, 8 mg IN): 11.2 ng·h/mL
Cmax (other: intranasal, 16 mg IN): 49.3 ng/mL
AUC (other: intranasal, 16 mg IN): 24.9 ng·h/mL
Cmax (other: sublingual, 8 mg SL): 2.03 ng/mL
AUC (other: sublingual, 8 mg SL): 1.68 ng·h/mL
Cmax (other: sublingual, 16 mg SL): 4.39 ng/mL
AUC (other: sublingual, 16 mg SL): 3.42 ng·h/mL
Cmax (0.4 mg IM): 0.69 ng/mL
AUC (0.4 mg IM): 0.57 ng·h/mL
plasma concentration compared with 0.4 mg intramuscular administration (intranasal or sublingual, 8 mg or 16 mg, all time points up to 1 hour, fasted): significantly greater plasma concentrations

From patent US12414915B2, “Liquid naloxone spray” (HIKMA PHARMACEUTICALS USA INC., priority 2023, dated 2025)
